Results as given in patent US6093714A, “Tricyclic benzazepine compounds” (priority 1995, dated 2000).
Structures can show the parent of a compound that is named as a salt. Where two headings read alike, the source gives them in different places.

Key:
intraperitoneal cells = assay: Histamine release reaction inhibition test (rat intraperitoneal cells, DNP-As antigen); format: cell-based, Wistar male rat; conditions: 10^-5 to 10^-10 M test compound, DNP-As stimulated intraperitoneal cells, 10^5 cells/ml, read-out: IC50 (dose of the test compound required for inhibiting the histamine release reaction by 50%)
Protocol: Histamine release reaction inhibition test
(1) Preparation of antiserum
Rat anti-dinitrophenylated ascaris protein (hereinafter referred to as "DNP-As") serum was prepared according to the method established by Tada et al. (Tada, T. and Okumura, K., J. Immun. 106(4), 1971). Specifically, 1010 organisms of Bordetella pertussis and 1 mg of DNP-As were intramuscularly administered to the foot pad of the limbs of Brown norway male rats weighing 200 g, and, five days after the administration, 0.5 mg of DNP-As was intramuscularly administered to the back. Three days after that, blood was collected to prepare an antiserum. The titer of the antiserum was determined by using a 48-hr passive cutaneous anaphylaxis reaction using a rat and found to be 1:1000 to 1:2000.
(2) Induction of histamine release reaction and release reaction inhibitory activity
The above serum was diluted four times with physiological brine, and 1 ml of the diluted serum was intraperitoneally administered to a Wistar male rat. Two days after the administration, the abdominal cavity was washed with phosphate buffer, and intraperitoneal cells were collected. The cells were adjusted to 10^5 cells/ml and stimulated with 1 pg/ml DNP-As, and the amount of the histamine released on the supernatant was measured by the method established by Shore et al (Shore, P. A., Burkhalter, A. H. and Chon Jr. V. H. J. Pharm. Exp. Ther., 127 , 182-186 (1959)).
The amount of the released histamine treated with 10^-5 to 10^-10 M test compound was compared with that of non-treated group. The dose of the test compound required for inhibiting the histamine release reaction by 50% (IC50) was calculated based on the percentage inhibition. IC50 of sodium cromoglicate was used as a control.

[1] = test system: allergic foot-pad edema reaction; assay: Immediate and late phase allergic response inhibition test (allergic foot-pad edema reaction); format: in vivo, Wister male rats; conditions: Rattus norvegicus, po, 20 mg/kg orally, 10 min before induction
Protocol: Immediate and late phase allergic response inhibition test
Wister male rats weighing of 200 g were provided. 1010 organisms of Bordetella pertussis and 1 mg of dinitrophenylated ovalbumin (hereinafter abbreviated to "DNP-OA") were intramuscularly administered into the foot pad of the limbs of the rats except for the right hind leg. Further, ten days after the administration, 5 pg/site DNP-OA was subcutaneously administered to the right hind leg to induce allergic foot-pad edema reaction. The inhibitory activity of the test compounds was determined in such a manner that the volume of edema 30 min after the induction of the allergic reaction was regarded as an immediate phase allergic response and the volume of edema 8 hr after the induction of the allergic reaction was regarded as a late phase allergic response. Each test compound was dissolved or suspended in a 0.25% Tween 80 solution, and the solution or suspension was orally administered at a dose of 20 mg/kg 10 min before the induction of the allergic reaction.
Only the 0.25% Tween 80 solution was administered to the control group of rats not treated with any test compound, and 100 mg/kg sodium cromoglicate was subcutaneously or orally administered to the positive control group of rats.
The percentage inhibition of the allergic foot-pad edema reaction was determined by the following equation.
Percentage inhibition of allergic foot-pad edema reaction=(A-B)/A×100
wherein A: average edema volume for the non-treated control group of rats; and
B: average edema volume for the group of rats with the test compound administered.

[2] = 0.5 h, edema 30 min after induction, read-out: Inhibition (%) Immediate phase response
[3] = edema 8 hr after induction, read-out: Inhibition (%) Late phase response

| SMILES | IC50 (intraperitoneal cells) | inhibition in vivo at 20 mg/kg [1, 2] | inhibition in vivo at 20 mg/kg [1, 3] |
| --- | --- | --- | --- |
| O=C(CCc1ccc2c(=O)c3[nH]nnc3c(=O)[nH]c2c1)N(Cc1ccccn1)Cc1ccccn1 [Example 5, 4(5H ),10-Dioxo-7-(2-(N,N-bis(2-pyridylmethyl))carbamoyl)ethyl-1H-1,2,3-triazolo[4,5-c][1]benzazepine] | 2.9 nM | 40% | 43% |
| O=C(CCc1ccc2c(=O)c3[nH]nnc3c(=O)[nH]c2c1)N1CCc2ccccc2C1 [Example 6, 7-(2-(1,2,3,4-Tetrahydro-2-isoquinolyl)carbonylethyl)-4(5H),10-dioxo-1H-1,2,3-triazolo[4,5-c][1]benzazepine] | 4.5 nM | 19% | 29% |
| COC(=O)c1cc2c(s1)CCN(C(=O)CCc1ccc3c(=O)c4[nH]nnc4c(=O)[nH]c3c1)C2 [Example 7, 7-(2-(2-Methoxycarbonyl-4,5,6,7-tetrahydrothieno[3,2-c]pyridin-5-yl)carbonylethyl)-4(5H),10-dioxo-1H-1,2,3-triazolo[4,5-c][1]benzazepine] | 12 nM | 20% | -3% |
| CN1CCN(C(=O)CCc2ccc3c(=O)c4[nH]nnc4c(=O)[nH]c3c2)CC1 [Example 8, 7-(2-(4-Methylpiperazin-1-yl)carbonylethyl)-4(5H),10-dioxo-1H-1,2,3-triazolo[4,5-c][1]benzazepine] | 9.5 nM | 42% | 20% |
| O=c1[nH]c2cc(OCCCN3CCOCC3)ccc2c(=O)c2[nH]nnc12 [Example 12, 7-(3-Morpholinopropoxy)-4(5H),10-dioxo-1H-1,2,3-triazolo[4,5-c][1]benzazepine trifluoroacetate] | 3.6 nM | 46% | 42% |
| CN1CCN(CCCOc2ccc3c(=O)c4[nH]nnc4c(=O)[nH]c3c2)CC1 [Example 13, 7-(3-(4-Methyl-1-piperazino)propoxy)-4(5H),10-dioxo-1H-1,2,3-triazolo[4,5-c][1]benzazepine ditrifluoroacetate] | 11 nM | 28% | 28% |
| O=c1[nH]c2cc(OCCCN3CCC(Cc4ccccc4)CC3)ccc2c(=O)c2[nH]nnc12 [Example 14, 7-(3-(4-Benzylpiperidino)propoxy)-4(5H),10-dioxo-1H-1,2,3-triazolo[4,5-c][1]benzazepine trifluoroacetate] | 11 nM | 32% | 15% |
| O=C(COc1ccc2c(=O)c3[nH]nnc3c(=O)[nH]c2c1)N(Cc1ccccn1)Cc1ccccn1 [Example 18, 7-(N,N-Bis(2-pyridylmethyl)carbamoylmethyloxy)-4(5H),10-dioxo-1H-1,2,3-triazolo[4,5-c][1]benzazepine ditrifluoroacetate] | 6.2 nM | 40% | 5% |
| O=C(Nc1ccc2c(=O)c3[nH]nnc3c(=O)[nH]c2c1)c1ccc(OCCCCc2ccccc2)cc1 [Example 22, 4(5H),10-Dioxo-7-(4-phenylbutoxybenzoylamino)-1H-1,2,3-triazolo[4,5-c][1]benzazepine] | 8.1 nM | 40% | 41% |
| COc1ccc(C(=O)COc2cc3c(=O)c4[nH]nnc4c(=O)[nH]c3cc2C)cc1 [Example 27, 8-(4-Methoxyphenacyloxy)-7-methyl-4(5H),10-dioxo-1H-1,2,3-triazolo[4,5-c][1]benzazepine] | 10 nM | – | – |
| Cc1cc(C)c2[nH]c(=O)c3nn[nH]c3c(=O)c2c1 [Example 29, 6,8-Dimethyl-4(5H),10-dioxo-1H-1,2,3-triazolo[4,5-c][1]benzazepine] | 31 nM | – | – |

The next lines start with results.

| IC50 (intraperitoneal cells) | SMILES | inhibition in vivo at 20 mg/kg [1, 2] | inhibition in vivo at 20 mg/kg [1, 3] |
| --- | --- | --- | --- |
| 6 nM | O=C(/C=C/c1ccc2c(=O)c3[nH]nnc3c(=O)[nH]c2c1)Nc1ccccc1C(=O)O [Example 1, 7-(2-(N-(2-Carboxyphenyl)carbamoyl)-(E)-ethenyl)-4(5H),10-dioxo-1H-1,2,3-triazolo[4,5-c][1]benzazepine] | – | – |
| 4.4 nM | O=C(CCc1ccc2c(=O)c3[nH]nnc3c(=O)[nH]c2c1)NCc1ccccn1 [Example 2, 4(5H),10-dioxo-7-(2-(N-(2-pyridyl)methyl)carbamoyl)ethyl-1H-1,2,3-triazolo[4,5-c][1]benzazepine] | 57% | 43% |
| 4.6 nM | CN(Cc1ccccn1)C(=O)CCc1ccc2c(=O)c3[nH]nnc3c(=O)[nH]c2c1 [Example 3, 4(5H),10-dioxo-7-(2-(N-methyl-N-(2-pyridyl)methyl)carbamoyl)ethyl-1H-1,2,3-triazolo[4,5-c][1]benzazepine] | 44% | 14% |
| 13 nM | CCN(Cc1ccccn1)C(=O)CCc1ccc2c(=O)c3[nH]nnc3c(=O)[nH]c2c1 [Example 4, 7-(2-(N-Ethyl-N-(2-pyridyl)methyl)carbamoyl)ethyl-4(5H),10-dioxo-1H-1,2,3-triazolo[4,5-c][1]benzazepine] | 48% | 21% |
| 3.9 nM | O=C(CCc1ccc2c(=O)c3[nH]nnc3c(=O)[nH]c2c1)Nc1ccncc1 [Example 9, 7-(2-(N-(4-Pyridylamino))carbamoyl)ethyl-4(5H),10-dioxo-1H-1,2,3-triazolo[4,5-c][1]benzazepine] | 30% | 33% |
| 2.4 nM | O=c1[nH]c2cc(/C=C/c3ccncc3)ccc2c(=O)c2[nH]nnc12 [Example 10, 4(5H),10-Dioxo-7-(2-(4-pyridyl)-(E)-ethenyl)-1H-1,2,3-triazolo[4,5-c][1]benzazepine trifluoroacetate] | 44% | 59% |
| 1.8 nM | O=c1[nH]c2cc(/C=C/c3ccccn3)ccc2c(=O)c2[nH]nnc12 [Example 11, 4(5H),10-Dioxo-7-(2-(2-pyridyl)-(E)-ethenyl)-1H-1,2,3-triazolo[4,5-c][1]benzazepine trifluoroacetate] | – | – |
| 9.9 nM | CCN(Cc1ccccn1)C(=O)COc1ccc2c(=O)c3[nH]nnc3c(=O)[nH]c2c1 [Example 15, 7-(N-Ethyl-N-(2-pyridylmethyl)carbamoylmethyloxy)-4(5H),10-dioxo-1H-1,2,3-triazolo[4,5-c][1]benzazepine trifluoroacetate] | 34% | 25% |
| 2.8 nM | O=C(COc1ccc2c(=O)c3[nH]nnc3c(=O)[nH]c2c1)NCc1ccccn1 [Example 16, 4(5H ),10-Dioxo-7-(N-(2-pyridylmethyl)carbamoylmethyloxy)-1H-1,2,3-triazolo[4,5-c][1]benzazepine trifluoroacetate] | 48% | 35% |
| 4.1 nM | Cc1ccc(C(=O)Oc2ccc3c(=O)c4[nH]nnc4c(=O)[nH]c3c2)cc1 [Example 17, 4(5H),10-Dioxo-7-(4-toluoyloxy)-1H-1,2,3-triazolo[4,5-c][1]benzazepine] | 44% | 24% |
| 4.6 nM | CC(=O)Nc1ccc2c(=O)c3[nH]nnc3c(=O)[nH]c2c1 [Example 21, 7-Acetylamino-4(5H),10-dioxo-1H-1,2,3-triazolo[4,5-c][1]benzazepine] | 43% | 26% |
| 2 nM | O=c1[nH]c2cc(C=Cc3cccnc3)ccc2c(=O)c2[nH]nnc12 [Example 31, 4(5H),10-Dioxo-7-(2-(3-pyridyl)ethenyl)-1H-1,2,3-triazolo[4,5-c][1]benzazepine trifluoroacetate (E:Z=1:2)] | – | – |
| 0.4 nM | O=c1[nH]c2cc(/C=C/c3ccc4ccccc4n3)ccc2c(=O)c2[nH]nnc12 [Example 33, 4(5H),10-Dioxo-7-(2-(2-quinolyl)-(E)-ethenyl)-1H-1,2,3-triazolo[4,5-c][1]benzazepine trifluoroacetate] | – | – |
